The test system of data set [1] is pro-inflammatory cytokine IL1β. Kind of data set: Cuprizone model: IL1β mRNA in cerebellum lysates by PCR. The following applies: cerebellum lysates, cuprizone model; versus the group treated solely with vehicles.
Text: Identifying the mRNA levels of pro-inflammatory cytokine IL1β in mouse cerebellum lysates (Fig 11).
The test system of another data set is white blood cells. Kind of data set: Cuprizone model: blood morphology (white blood cell counts). The data set is classed as in vivo, mice. The following applies: after 14 days of treatment in the cuprizone model; CF3-7α,25OHC 20 mg/kg s.c., barbadin 0.3 mg/kg i.p.; compared to vehicle group #3. As to the method:
C (Fig 7) or #3 (Fig 8 and 9) vehicle control group - the mice were fed with chow containing cuprizone for 9 weeks, and then with regular chow without cuprizone for another 2 weeks. Over the 2 weeks on regular chow the mice in the vehicle control group were first injected vehicle #1: DMSO (intraperitoneal injection), 150 µl once a day, and then vehicle #2: canola oil, subcutaneously, 150 µl once a day.
#4 (Fig 8 and 9) barbadin control group - the mice were fed with chow containing cuprizone for 9 weeks, and then with regular chow without cuprizone for another 2 weeks. Over the 2 weeks on regular chow the mice in the group were injected barbadin 0.3 mg/kg, intraperitoneally, 150 µl once a day, and then vehicle #2: canola oil, subcutaneously, 150 µl once a day.
E (Fig 7) or #5 experimental group with oxysterol CF3-7α,25OHC - the mice were fed with chow containing cuprizone for 9 weeks, and then with regular chow without cuprizone for another 2 weeks. Over the 2 weeks on regular chow the mice in the group were injected vehicle #1: DMSO, intraperitoneally, 150 µl once a day, and CF3-7α,25OHC, dose: 20 mg/kg, subcutaneously, 150 µl once a day.
#6 (Fig 8 and 9) experimental group with barbadin + oxysterol CF3-7α,25OHC - the mice were fed with chow containing cuprizone for 9 weeks, and then with regular chow without cuprizone for another 2 weeks. Over the 2 weeks on regular chow the mice in the group were injected barbadin, 0.3 mg/kg, intraperitoneally, 150 µl once a day, and then one hour following the barbadin injection they were injected CF3-7α,25OHC, dose: 20 mg/kg, subcutaneously, 150 µl once a day.
The blood from the heart was sampled after the mice had been euthanised, and blood morphology test was performed using a standard diagnostic analyser. […] The lymphocyte count in peripheral blood of the mice which had been injected with CF3-7α,25OHC was lower by 50% compared to the control group of mice injected with vehicles (gr. #3 or C). The specific action of CF3-7α,25OHC leading to reduction of the lymphocyte count in blood finds confirmation in the results obtained for the mice of groups #4 (or D) and #6 (or F). Compared to the control group, the lymphocyte count in blood in the group of mice injected with barbadin (#4 or D) was lower only by 21%, and in the group of mice injected with barbadin + CF3-7α,25OHC by 7%. Following interaction with CF3-7α,25OHC, barbadin blocks internalisation of the EBI2 receptor from the cell membrane. The absence of any significant effect related to the treatment with barbadin or barbadin + CF3-7α,25OHC indicates a specific action of CF3-7α,25OHC on the EBI2 receptor and the consequential effects of that action, namely reduction of the count of circulating lymphocytes in blood. Moreover, the number of monocytes in group #5 (or E: mice treated with CF3-7α,25OHC) was lower by as much as 66% and the total leukocyte count (lymphocytes and monocytes included) was also substantially lower (by 51%), though only in the group of mice injected with CF3-7α,25OHC. In our subsequent in vivo tests (short-term pharmacology) we confirmed the action of CF3-7α,25OHC. In that test, too, it reduced the count of white blood cells. CF3-7α,25OHC reduces the lymphocyte count as early as following the 4 mg/kg dose and the effect lasts for 24 hours following administration.

In data set [2] the test system is mouse organotypic cerebellar slices. Kind of data set: Remyelination of organotypic cerebellar slices after LPC demyelination (Mbp mRNA by quantitative PCR). In kind it is cell-based. The following applies: LPC 0.4 mg/ml, then treatment in serum-free culture medium for 14-16 days; barbadin 16 µM, 7α,25OHC 0.1 µM, NIBR189 10 µM; concentration of CF3-7α,25OHC not given; vs untreated LPC slices. The method, then:
(§1) Organotypic cerebellar slices were sampled from ten-day old mice and then grown in an incubator for 14 days. After 14 days the myelin was chemically removed with LPC (0.4 mg/ml). Following the removal of the myelin sheaths, the slices were treated with: • 1. the control group: regular culture medium, without LPC • 2. LPC, then on serum-free culture medium for 14-16 days • 3. LPC followed by barbadin 16 µM in serum-free culture medium for 14-16 days • 4. LPC followed by 7α,25OHC 0.1 µM in serum-free culture medium for 14-16 days • 5. LPC followed by NIBR189 10 µM in serum-free culture medium for 14-16 days • 6. LPC followed by barbadin 16 µM + 7α,25OHC 0.1 µM in serum-free culture medium for 14-16 days
Once the experiment was completed (remyelination for 14-16 days) the slices were collected and MBP mRNA levels were measured by the PCR quantitative method. In the mouse organotypic cerebellar slices in which myelin sheaths were chemically removed with lysophosphatidylcholine (LPC) spontaneous myelin regeneration took place except for the slices treated with a selective EBI2 receptor antagonist (NIBR189). The results once again reveal key significance of EBI2 intracellular signalling for myelin regeneration. […] Barbadin, which inhibits internalisation of the EBI2 receptor, is necessary to achieve the therapeutic effect (faster remyelination) in the case of non-modified oxysterol (Fig 1 and Fig 2a).

A further data set relates to Ch25h. Description: mRNA level of oxysterol-synthesizing enzyme in organotypic cerebellar slices. In kind it is cell-based, mouse. The note with it: slices first treated with LPC and then with 7α,25OHC. As to the method: as §1
(§2) Measurement of the mRNA level of the Ebi2 receptor and of the enzymes synthesizing (Ch25h, Cyp7b1) and degrading (Hsd3b7) the natural ligand 7α,25OHC in organotypic cerebellar slices treated with non-modified oxysterol 7α,25OHC (Fig 5) (tissue and treatments as in Fig 1 and Fig 2a) and in cerebella of the mice subject to the cuprizone model, treated with modified oxysterol CF3-7α,25OHC (Fig 6). LPC treatment modulates enzymes which synthesise and degrade the natural oxysterol 7α,25OHC.

The conditions of data set [3]: mice, subcutaneous or intraperitoneal injection, elimination from blood; cited from earlier work.
The subject of another data set is Ebi2 receptor. Kind of data set: Ebi2 mRNA level in organotypic cerebellar slices. In kind it is cell-based, mouse. The note with it: slices first treated with LPC and then with 7α,25OHC. As to the method:
as §1, §2

“Also recorded” adds a separate entry of the source.

Take `Nn1cnc2scc(-c3ccc(Cc4ccccc4)cc3)c2c1=O` [barbadin, reference compound]: in data set [1], the “mRNA level of IL1β went up by” value amounted to 2%. The “drop in lymphocytes (lymphocyte count in peripheral blood lower by)” value in the data set with white blood cells is 21%.

As for `COc1ccc(C(=O)N2CCN(C(=O)/C=C/c3ccc(Br)cc3)CC2)cc1` [NIBR189, (2E)-3-(4-bromophenyl)-1-(4-(4-methoxybenzyoil)-1-piperazine)-2-propen-1-on], the “remyelination (Mbp expression)” value in data set [2] is “do not remyelinate”.

For the compound `C[C@H](CCCC(C)(C)O)[C@H]1CC[C@H]2[C@@H]3[C@H](O)C=C4C[C@@H](O)CC[C@]4(C)[C@H]3CC[C@]12C` [7α,25OHC], in the data set with Ch25h, the “level of Ch25h” value is on record as “reduces the level of Ch25h”. The half-life entry in data set [3] is listed as “ca. 30 minutes”. Further, the Ebi2 expression result in the data set on Ebi2 receptor is recorded as “reduces the expression level of receptor EBI2; also recorded: does not increase its expression; also recorded: does not increase Ebi2 expression”. Further, the “remyelination (Mbp expression)” value in data set [2] was “do not remyelinate quicker than ones not subject to any treatment; also recorded: do not remyelinate faster than the untreated slices”.

Source of the values: patent publication EP4497440A1, “USE OF 7-TRIFLUOROMETHYL-7ALPHA,25-DIHYDROXYCHOLESTEROL IN THE TREATMENT AND MODULATION OF AUTOIMMUNE AND INFLAMMATORY DISEASES OF THE NERVOUS SYSTEM AND NEURODEGENERATIVE DISEASES” (Gdanski Uniwersytet Medyczny, priority 2023, dated 2025).
